# What was measured:
# CHO DG44 cells = assay: Combination with IDMTs, IgG batch yield by ELISA (Example 6); assay type: cell-based, Chinese Hamster; details: VPA 0.5 mmol/l; no addition = 100%; day 5 after transfection
# Experimental: 10 million suspension-adapted HEK293E cells were resuspended in 0.5 ml of Ex-Cell 293 HEK 293 serum-free medium with 4 mmol/l L-glutamine (Cat. No. 14571C-[…]; Lot No. 6A0093; SAFC Biosciences, Lenexa, Kans., USA, “Ex-Cell” medium; note: “Ex-Cell” medium-as used herein-refers to a medium comprising 4 mmol/l L-glutamine) in a 50-ml filter tube each (TPP AG, Trasadingen, Switzerland; Cat. No. 87050, Lot 20050174). In a separate set, 10 million suspension-adapted CHO DG44 cells were resuspended in 0.5 ml of ProCHO5 serum-free medium with 4 mmol/[…] hypoxanthine and 0.194 g/l thymidine (BioWhittaker (Lonza), Belgium; Cat. No. BE12-[…]; Lot No. 7MB0040; “ProCHO5” medium; note: “ProCHO5” medium-as used herein-refers to a medium comprising 4 mmol/[…] hypoxanthine and 0.194 g/l thymidine) in a 50-ml filter tube each (TPP AG, Trasadingen, Switzerland; Cat. No. 87050, Lot 20050174). Then 12.5 μg plasmid DNA at a concentration of 1 μg/μl was added in each tube with the following composition 50% (6.25 μg) p-LC (SEQ ID NO: 1) 50% (6.25 μg) p-HC (SEQ ID NO: 3). Plasmid p-LC comprises the genetic information for the production of the light chain of an IgG antibody, plasmid p-HC comprises the genetic information for the production of the heavy chain of an IgG antibody. The particular vector constructs used in the present invention can also be obtained from the inventors. The inventors can be contacted via e-mail at […]. Moreover, commercial services do exist that produce any desired nucleotide sequence even comprising several kilobase pairs including complete expression cassettes in plasmid backgrounds (e.g., Invitrogen, Carlsbad, USA; Geneart, Germany.) Thus, providing the genetic sequence information of the plasmids should enable one of ordinary skill in the art to order the plasmids of the present invention at one of the commercial services listed. After shortly mixing the DNA with the cells by gentle shaking, 25 μg of 25-kd linear polyethyleneimine (“PEI”; Polysciences, Eppelheim, Germany; [2]) were added at a concentration of 1 μg/μl to each of the tubes. After shortly mixing by gentle shaking, the filter tubes containing the cells together with the DNA and PEI were transferred into an orbital shaker (Kühner Shaker Cabinet ISF-4-W, “Kühner shaker”, Kühner AG, Birsfelden, Switzerland), and the cells were incubated for 4 hours at 37° C. in a 5% CO2 atmosphere under shaking at 180 rpm. After that time, 4.5 ml of Ex-Cell medium were added to each of the filter tubes containing HEK 293 cells and 4.5 ml of Pro-CHO5 were added to each of the filter tubes containing CHO DG44 cells. Then, valproic acid was added to each of the tubes at the corresponding final concentration. In addition, the following chemicals were added to the corresponding tubes at a final concentration of: […] Azacytidine was purchased from Sigma-Aldrich Chemie GmbH, Industriestrasse 25, CH-9471 Buchs SG, Catalog Number A1287-1 VL. RG108 was purchased from Sigma-Aldrich Chemie GmbH, Industriestrasse 25, CH-9471 Buchs SG, Catalog Number R8279-10MG. The cells then were returned into the Kuhner shaker and incubated at 37° C. in a 5% CO2 atmosphere under shaking at 180 rpm. […] In short, Goat anti-human kappa light chain IgG (Biosource) was used for coating the ELISA-plates, and with AP-conjugated goat anti-human gamma chain IgG (Biosource) the synthesized IgG1 was detected. […] Absorption was measured at 405 nm against 490 nm using a microplate reader (SPECTRAmaxTM340; Molecular Devices, Palo Alto, Calif., USA).
# CHO cells = assay: Stable cell lines, IgG batch titer by ELISA (Example 5); assay type: cell-based, Chinese Hamster; details: 0.5 mmol/l final VPA; stable mass culture; 5 days after VPA addition
structure (smiles),measurement,setting,value
"CCCC(CCC)C(=O)O [VPA, valproic acid]",Fold increase in batch yield over control,CHO DG44 cells,170% ± 20%
same,Batch titer CHO,CHO cells,35.5 ± 2.5 mg/L

# From patent publication US20090023186A1, “USE OF VALPROIC ACID FOR ENHANCING PRODUCTION OF RECOMBINANT PROTEINS IN MAMMALIAN CELLS” (EXCELLGENE SA, priority 2007, published 2009)
